The text below walks through data of patent publication US20100151572A1, “ANTI-TUMORAL COMPOSITIONS METHODS” (priority 2005, published 2010).

Series [1] has as its target T1, human enzyme (PNP) (Homo sapiens, UniProt P00491).
T1 sequence (P00491 1-289): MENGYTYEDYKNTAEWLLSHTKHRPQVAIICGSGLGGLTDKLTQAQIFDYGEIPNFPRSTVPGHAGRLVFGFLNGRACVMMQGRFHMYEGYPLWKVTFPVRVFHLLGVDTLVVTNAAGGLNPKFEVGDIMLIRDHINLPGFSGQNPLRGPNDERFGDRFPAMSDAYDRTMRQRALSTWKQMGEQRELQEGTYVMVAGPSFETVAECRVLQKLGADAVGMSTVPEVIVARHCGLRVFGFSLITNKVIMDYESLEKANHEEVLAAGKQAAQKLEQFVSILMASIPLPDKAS
The following applies: cited from earlier work.

In series [2] the target is E. coli PNP (Escherichia coli, UniProt P0ABP8). The following applies: abrogates E. coli PNP activity; cited from earlier work.
Chain of E. coli PNP (P0ABP8 whole entry): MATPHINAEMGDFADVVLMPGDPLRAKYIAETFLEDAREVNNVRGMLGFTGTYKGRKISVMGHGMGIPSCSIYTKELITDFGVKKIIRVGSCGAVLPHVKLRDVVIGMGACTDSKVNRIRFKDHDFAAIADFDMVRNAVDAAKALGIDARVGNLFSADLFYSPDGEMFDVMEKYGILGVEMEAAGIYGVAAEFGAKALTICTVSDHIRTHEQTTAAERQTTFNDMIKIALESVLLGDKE
For series [3], the system named is D54 glioma tumors (MuLv-PNP transduced). Put plainly: D54 tumors expressing E. coli PNP from MuLV, prodrug treatment in vivo. The conditions noted are these: MeP-dR. The method, then: For example, in one in vivo tumor model, tumors are established in animals by subcutaneous implantation of about 10^7 cells into the axillary region of 6-10 mice. Athymic (or scid) mice are used for models of certain human tumors including cells such as D54, HCT-15, and SR475 head/neck. Syngeneic models are also used. For instance, mouse tumors are established using Colon 26 and G26 glioma cells.
The resulting solid tumors are measured twice weekly in two dimensions and the mass calculated using the formula for a prolate ellipsoid, [length (mm)×width^2 (mm)]/2=mg, assuming unit density. The data will permit the determination of a tumor volume doubling time, % “no takes”, and % spontaneous regressions.
PNP expression in MuLv was driven by an SV40 promoter. Mice are given non-absorbable antibiotics in their drinking water prior to treatment with high doses of MeP-dR (e.g. 168 mg/kg/d×3d) to minimize intestinal cleavage of the compound (Bharara, S., et al., 2005, Human Gene Therapy 16:339-347.). Antibiotics are not co:administered for lower doses of MeP-dR, or with less avid substrates such as fludarabine.

The conditions of series [4]: in vivo; cited from earlier work.
Series [5] concerns D54 glioma tumors (lentivirus PNP). Put plainly: D54 tumors expressing E. coli PNP from lentivirus, prodrug treatment in vivo. Also noted: species or system human. The conditions noted are these: MeP-dR; 10%, 5%, 2.5% PNP expressing cells; p<0.05 (2.5%), p<0.005 (5% and 10%). The text has this: Syngeneic models are also used.
D54 glioma tumors are established from a stable cell line expressing E. coli PNP by a strong, CMV-based promoter in a lentiviral vector. FIG. 10 illustrates results. Open Circles: Tumors established from 10% PNP expressing/90% non-expressing tumor cells; PNP activity 9600±1300 units on day 14. Open Triangles: 5% expressing, 95% non-expressing tumor cells; PNP activity 5500±1700 units. Open Squares: Tumors established from 2.5% expressing, 97.5% non-expressing (PNP activity 3600±530 units). Closed symbols depict growth of corresponding (10%, 5%, 2.5%) PNP tumors treated with vehicle (saline control). At least six animals are studied per group. Identically treated animals from each study arm are sacrificed just prior to initiation of MeP-dR therapy (day 14) to measure intratumoral PNP acitivity. […] These experiments test the influence of substantially higher PNP activities on bystander killing in vivo. PNP activity in 300 mg tumors comprised of 100% lentivirus transduced cells is found to be approximately 126,000 PNP units (one unit=1 nmole MeP-dR converted per mg tumor tissue per hour). When the level of E. coli PNP is studied using lentiviral expression, improvements in bystander killing are observed as shown in FIG. 10.
FIG. 12 depicts a study in which 100% of cells express E. coli PNP using lentivirus. Complete regression and cures of tumors (12 of 12) are obtained with F-araAMP following a 3 day treatment schedule. […] Adjusting the schedule of F-araAMP may also improve bystander killing in vivo (FIG. 16).
Tumors in which 100% of cells expressed E. coli PNP are treated with a maximally tolerated dose (MTD, 100 mg/kg schedule, open circles) or half the MTD (closed triangles). Six animals are included per treatment group. […] PNP activity in these tumors is 126,000±16,000 units on the day of drug therapy.
Tumors are established from an inoculum in which 10% of cells expressed E. coli PNP. PNP expression on the day of drug treatment is 14,200±681 PNP units. Anti-tumor efficacy is greater at 100 mg/kg F-araAMP (open circles) than at 50 mg/kg (closed triangles) or 25 mg/kg (open triangles) given over a standard 3 day schedule (q2h×5, q1d×3 days).
D54 glioma tumors are established with decreasing proportions of PNP expressing cells (and increasing non-expressing (parental) cells). (open symbols: F-araAMP therapy; closed symbols: no prodrug therapy; circles: 2.5%; triangles 5%, and squares 10% PNP transduced cells). F-araAMP was 100 mg/kg q2h×5, q1d×3.
Tumors comprised of 5% PNP expressing cells and 2 different fludarabine schedules are shown.

The subject of series [6] is human glioma tumors. Put plainly: HSV-PNP intratumoral inoculation of human glioma tumors in mice. The following applies: intratumoral MeP-dR 168 mg/kg daily x 3 days with HSV-PNP. Format: in vivo. As to the method:
Using HSV-PNP, a composition including 17 million pfu of the virus in 50 microliters is administered on day 16 following establishment of human glioma tumors in mice. HSV-PNP by itself slows growth of tumors following intratumoral inoculation, approximately 20 days delay to one tumor doubling.

In series [7] the test system is HeLa cells. Nature of the series: Ad-PNP mediated cell killing in vitro, crystal violet staining. In kind it is cell-based, human. The following applies: MeP-dR 40 micrograms/milliliter, adenoviral MOI 0.1-100, stained 6 days post infection. The method, then: Confluent HeLa cells are infected with Ad-PNP at various MOIs. MeP-dR is added at 40 micrograms/milliliter in one set of cells at 24 hours post infection. At 6 days post infection, all cultures are stained with Crystal Violet to visualize living cells.
FIG. 17 depicts results using an Ela deleted adenoviral vector encoding E. coli PNP as described herein.

Usually Ki stands for the equilibrium dissociation constant of an inhibitor or competing ligand from its target. `Nc1ncnc2c([C@@H]3O[C@H](CO)[C@@H](O)[C@H]3O)[nH]nc12` [Formycin A]: in series [1], the “activity against the human enzyme” value was “inactive”. For the same molecule, the Ki in series [2] was 5 µM.
As to `Cc1ncnc2c1ncn2[C@H]1C[C@H](O)[C@@H](CO)O1` [MeP-dR, 9-(2-deoxy-beta-D-ribofuranosyl]-6-methylpurine], the “anti-tumor effect vs non-treatment groups” value in series [3] (20% PNP-expressing / 80% parental cells, p<0.002) is given as “significantly different from non-treatment groups”. The tolerability of treatments entry in series [3] (20% PNP (MuLv) and parental tumors) was “well tolerated without limiting weight loss or lethality”. Further, in series [4], the circulating half life was ~20 min and the “half life in serum” value is 15 to 20 min. Moreover, in series [5], the “antitumor effects vs non-treatment groups” value is reported as “significantly different from non-treatment groups”. Further, in series [6], the “anti-tumor effect with HSV-PNP” value was “improves tumor regressions and arrest of tumor growth”. Also, the “cell killing in combination with Ad-PNP” value in series [7] was “sufficient to eliminate populations of cancer cells”.
